# Test results: patent publication US12692238B2, “Substituted pyridazinone herbicides” (FMC CORPORATION, priority 2020, dated 2026)
# Key:
# Format in all cases: in vivo
# [1] = system: ducksalad (Heteranthera limosa); assay: Test B flooded paddy test, ducksalad; conditions: Heteranthera limosa; 250 g ai/ha, Flood; visually evaluated after 10 to 14 days; read-out: Plant response rating, Ducksalad (0 to 100 scale where 0 is no effect and 100 is complete control)
# Outline: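 2-leaf plants; pots flooded to 3 cm; compound applied to paddy water; depth kept constant; greenhouse 10–14 d; visual rating vs untreated, 0 = no effect, 100 = complete control.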
# [2] = system: corn (Zea mays); assay: Test A preemergence, corn; conditions: 0 to 100 scale, 10 days
# Outline: (§1)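 Compounds were sprayed in a non-phytotoxic, surfactant-containing solvent. For preemergence the spray was directed onto freshly seeded loam/sand soil; for postemergence it went onto one- to two-leaf plants. Visual injury, 0–100, was recorded at 10 days.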
# [3] = system: wheat (Triticum aestivum); assay: Test A preemergence, wheat; conditions: 125 g ai/ha, 0 to 100 scale, 10 days
# [4] = system: goosegrass (Eleusine indica); assay: Test A preemergence, goosegrass; conditions: 0 to 100 scale, 10 days
# Outline: as §1
# [5] = system: blackgrass (Alopecurus myosuroides); assay: Test A preemergence, blackgrass; conditions: 0 to 100 scale, 10 days
# Outline: as §1
# [6] = system: palmer amaranth (pigweed, palmer, Amaranthus palmeri); assay: Test A preemergence, palmer amaranth; conditions: 0 to 100 scale, 10 days
# Outline: as §1
# [7] = system: foxtail, giant (giant foxtail, Setaria faberi); assay: Test A preemergence, foxtail, giant; conditions: Setaria faberi, pre-emergence, 240 h, 0 to 100 scale, 10 days, read-out: Plant response rating, Foxtail, Giant; for pest or weed control at 31 g/ha: 31 g ai/ha; for pest or weed control at 125 g/ha: 125 g ai/ha
# Outline: as §1
# [8] = system: soybean (Glycine max); assay: Test A preemergence, soybean; conditions: 0 to 100 scale, 10 days
# Outline: as §1
# [9] = system: ryegrass, Italian (Italian ryegrass, Lolium multiflorum); assay: Test A postemergence, ryegrass, Italian; conditions: Lolium multiflorum, post-emergence, 240 h, 10 days, read-out: Plant response rating, Ryegrass, Italian; for pest or weed control at 31 g/ha: 31 g ai/ha, postemergence, 0 to 100 scale (0 no effect, 100 complete control); for pest or weed control at 125 g/ha: Postemergence, 125 g ai/ha, 0 to 100 scale
# Outline: as §1
# [10] = system: goosegrass (Eleusine indica); assay: Test A postemergence, goosegrass; conditions: 10 days
# Outline: as §1
# [11] = system: palmer amaranth (pigweed, palmer, Amaranthus palmeri); assay: Test A postemergence, palmer amaranth; conditions: 10 days
# Outline: as §1
# [12] = system: oat, wild (wild oat, Avena fatua); assay: Test A postemergence, oat, wild; conditions: 10 days
# Outline: as §1
# [13] = system: horseweed (Erigeron canadensis); assay: Test A postemergence, horseweed; conditions: 10 days
# Outline: as §1
# [14] = system: soybean (Glycine max); assay: Test A postemergence, soybean; conditions: 10 days
# Outline: as §1
# [15] = system: oat, wild (wild oat, Avena fatua); assay: Test A preemergence, oat, wild; conditions: 0 to 100 scale, 10 days
# Outline: as §1
# [16] = 31 g ai/ha, postemergence, 0 to 100 scale (0 no effect, 100 complete control)
# [17] = Postemergence, 125 g ai/ha, 0 to 100 scale
SMILES,pest or weed control at 250 g/ha [1],"Plant response rating, Corn ([2]; 31 g ai/ha)","Plant response rating, Corn ([2]; 125 g ai/ha)","Plant response rating, Wheat [3]","Plant response rating, Goosegrass ([4]; 31 g ai/ha)","Plant response rating, Goosegrass ([4]; 125 g ai/ha)","Plant response rating, Blackgrass ([5]; 31 g ai/ha)","Plant response rating, Blackgrass ([5]; 125 g ai/ha)","Plant response rating, Pigweed, Palmer ([6]; 31 g ai/ha)","Plant response rating, Pigweed, Palmer ([6]; 125 g ai/ha)",pest or weed control at 31 g/ha [7],pest or weed control at 125 g/ha [7],"Plant response rating, Soybean ([8]; 31 g ai/ha)","Plant response rating, Soybean ([8]; 125 g ai/ha)",pest or weed control at 31 g/ha [9],pest or weed control at 125 g/ha [9],"Plant response rating, Goosegrass [10, 16]","Plant response rating, Goosegrass [10, 17]","Plant response rating, Pigweed, Palmer [11, 16]","Plant response rating, Pigweed, Palmer [11, 17]",other results
"Cc1ccc2cc3ccc(C)cc3c(-c3c(OCOC(=O)C(C)(C)C)c(Cl)nn(C)c3=O)c2c1 [Compound 9, [[3-chloro-5-(2,7-dimethyl-9-anthracenyl)-1,6-dihydro-1-methyl-6-oxo-4-pyridazinyl]oxy]methyl 2,2-dimethylpropanoate]",100%,0,0,0,10,10,0,0,40,100,0%,50%,0,0,0%,10%,30,30,80,80,"Plant response rating, Oat, Wild [12, 16]: 0; Plant response rating, Oat, Wild [12, 17]: 0; Plant response rating, Horseweed [13, 16]: 100; Plant response rating, Horseweed [13, 17]: 100; Plant response rating, Soybean [14, 16]: 40; Plant response rating, Soybean [14, 17]: 60; Plant response rating, Oat, Wild ([15]; 31 g ai/ha): 0; Plant response rating, Oat, Wild ([15]; 125 g ai/ha): 0"
"COC(=O)OCOc1c(C)nn(C)c(=O)c1-c1c2cc(C)ccc2cc2ccc(F)cc12 [Compound 15, [[5-(2-fluoro-7-methyl-9-anthracenyl)-1,6-dihydro-1,3-dimethyl-6-oxo-4-pyridazinyl]oxy]methyl methyl carbonate]",95%,0,30,0,50,90,30,10,100,100,100%,100%,0,10,100%,100%,30,60,100,100,"Plant response rating, Oat, Wild [12, 16]: 20; Plant response rating, Oat, Wild [12, 17]: 40; Plant response rating, Horseweed [13, 16]: 100; Plant response rating, Horseweed [13, 17]: 100; Plant response rating, Soybean [14, 16]: 80; Plant response rating, Soybean [14, 17]: 90; Plant response rating, Oat, Wild ([15]; 31 g ai/ha): 20; Plant response rating, Oat, Wild ([15]; 125 g ai/ha): 20"
